Measured values from ChEMBL document CHEMBL1148674, “Morpholin-2-one derivatives as novel selective T-type Ca2+ channel blockers” (Bioorg Med Chem Lett, 2006).

What was measured:
Homo sapiens = species on record: Homo sapiens; assay: Selectivity for calcium channel N type 2.2v over calcium channel T type 3.1v; format: functional
[1] = target: T1, Voltage-dependent T-type calcium channel subunit alpha-1G (Homo sapiens, UniProt O43497); assay: Ability to block calcium channel T type 3.1v expressed in HEK293 cells by whole cell patch clamp method; format: functional, cell-based
T1 sequence (O43497 whole entry): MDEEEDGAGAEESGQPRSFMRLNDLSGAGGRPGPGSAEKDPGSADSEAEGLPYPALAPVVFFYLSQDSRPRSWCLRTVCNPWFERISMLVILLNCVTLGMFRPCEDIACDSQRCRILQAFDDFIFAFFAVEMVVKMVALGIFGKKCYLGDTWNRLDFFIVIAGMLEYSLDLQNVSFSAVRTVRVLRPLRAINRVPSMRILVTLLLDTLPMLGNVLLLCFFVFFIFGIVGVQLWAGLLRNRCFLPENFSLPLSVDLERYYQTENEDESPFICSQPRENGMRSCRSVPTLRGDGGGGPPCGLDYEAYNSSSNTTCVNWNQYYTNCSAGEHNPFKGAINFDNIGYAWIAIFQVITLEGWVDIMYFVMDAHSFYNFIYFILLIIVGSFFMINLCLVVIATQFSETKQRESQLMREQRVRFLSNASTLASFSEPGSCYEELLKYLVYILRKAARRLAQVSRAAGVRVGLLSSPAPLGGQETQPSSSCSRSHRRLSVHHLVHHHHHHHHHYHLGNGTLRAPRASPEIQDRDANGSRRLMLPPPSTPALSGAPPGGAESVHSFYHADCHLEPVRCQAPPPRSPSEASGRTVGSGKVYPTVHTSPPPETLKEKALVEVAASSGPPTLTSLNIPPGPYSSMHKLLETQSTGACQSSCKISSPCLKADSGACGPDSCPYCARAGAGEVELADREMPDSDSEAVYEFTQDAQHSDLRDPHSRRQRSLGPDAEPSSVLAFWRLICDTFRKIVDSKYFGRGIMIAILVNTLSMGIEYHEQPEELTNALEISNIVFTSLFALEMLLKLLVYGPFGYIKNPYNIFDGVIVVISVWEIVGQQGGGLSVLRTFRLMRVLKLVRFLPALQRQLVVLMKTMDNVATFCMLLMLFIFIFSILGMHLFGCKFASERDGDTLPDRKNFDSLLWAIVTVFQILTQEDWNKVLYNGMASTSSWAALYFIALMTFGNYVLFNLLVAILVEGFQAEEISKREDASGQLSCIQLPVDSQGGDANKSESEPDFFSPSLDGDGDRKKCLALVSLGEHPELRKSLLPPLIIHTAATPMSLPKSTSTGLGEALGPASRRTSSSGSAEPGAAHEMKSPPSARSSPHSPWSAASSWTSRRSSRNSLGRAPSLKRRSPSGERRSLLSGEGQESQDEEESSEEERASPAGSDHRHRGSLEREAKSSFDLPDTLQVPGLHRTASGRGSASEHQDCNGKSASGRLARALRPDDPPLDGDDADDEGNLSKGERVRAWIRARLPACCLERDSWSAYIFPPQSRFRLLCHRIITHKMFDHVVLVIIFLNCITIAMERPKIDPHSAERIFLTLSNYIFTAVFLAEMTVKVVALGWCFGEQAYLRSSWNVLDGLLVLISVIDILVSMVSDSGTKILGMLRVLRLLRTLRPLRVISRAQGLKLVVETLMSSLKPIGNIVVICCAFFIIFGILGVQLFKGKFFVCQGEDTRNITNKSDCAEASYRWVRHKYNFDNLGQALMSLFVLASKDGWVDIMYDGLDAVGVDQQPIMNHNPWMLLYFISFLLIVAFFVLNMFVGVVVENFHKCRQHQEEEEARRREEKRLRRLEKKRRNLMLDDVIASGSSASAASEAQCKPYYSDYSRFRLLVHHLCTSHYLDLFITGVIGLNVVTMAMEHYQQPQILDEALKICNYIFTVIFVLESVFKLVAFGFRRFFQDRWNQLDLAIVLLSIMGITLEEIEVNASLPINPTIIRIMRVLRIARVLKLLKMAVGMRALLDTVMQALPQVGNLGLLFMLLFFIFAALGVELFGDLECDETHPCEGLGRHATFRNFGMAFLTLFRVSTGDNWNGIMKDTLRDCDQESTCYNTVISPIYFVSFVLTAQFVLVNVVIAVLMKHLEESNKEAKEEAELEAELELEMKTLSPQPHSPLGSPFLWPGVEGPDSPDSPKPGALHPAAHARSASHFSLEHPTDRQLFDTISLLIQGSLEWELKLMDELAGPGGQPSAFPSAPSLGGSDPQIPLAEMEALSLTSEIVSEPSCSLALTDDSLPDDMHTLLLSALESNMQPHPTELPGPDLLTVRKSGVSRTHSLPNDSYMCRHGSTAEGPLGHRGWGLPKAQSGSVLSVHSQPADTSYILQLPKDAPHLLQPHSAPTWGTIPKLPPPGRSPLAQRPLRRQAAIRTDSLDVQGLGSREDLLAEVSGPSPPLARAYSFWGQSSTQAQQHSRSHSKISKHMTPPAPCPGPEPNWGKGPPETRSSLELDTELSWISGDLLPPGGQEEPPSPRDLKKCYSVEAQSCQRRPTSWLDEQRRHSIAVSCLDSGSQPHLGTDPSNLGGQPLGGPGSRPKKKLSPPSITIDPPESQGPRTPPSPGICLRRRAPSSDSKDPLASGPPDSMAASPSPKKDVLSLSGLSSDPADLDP

[2] = target: Voltage-dependent N-type calcium channel subunit alpha-1B (Homo sapiens) (UniProt Q00975); assay: Ability to block calcium channel N type 2.2v expressed in HEK293 cells at 10 uM by whole cell patch clamp method; format: functional, cell-based
Sequence of Voltage-dependent N-type calcium channel subunit alpha-1B (Homo sapiens) (Q00975 whole entry, looked up): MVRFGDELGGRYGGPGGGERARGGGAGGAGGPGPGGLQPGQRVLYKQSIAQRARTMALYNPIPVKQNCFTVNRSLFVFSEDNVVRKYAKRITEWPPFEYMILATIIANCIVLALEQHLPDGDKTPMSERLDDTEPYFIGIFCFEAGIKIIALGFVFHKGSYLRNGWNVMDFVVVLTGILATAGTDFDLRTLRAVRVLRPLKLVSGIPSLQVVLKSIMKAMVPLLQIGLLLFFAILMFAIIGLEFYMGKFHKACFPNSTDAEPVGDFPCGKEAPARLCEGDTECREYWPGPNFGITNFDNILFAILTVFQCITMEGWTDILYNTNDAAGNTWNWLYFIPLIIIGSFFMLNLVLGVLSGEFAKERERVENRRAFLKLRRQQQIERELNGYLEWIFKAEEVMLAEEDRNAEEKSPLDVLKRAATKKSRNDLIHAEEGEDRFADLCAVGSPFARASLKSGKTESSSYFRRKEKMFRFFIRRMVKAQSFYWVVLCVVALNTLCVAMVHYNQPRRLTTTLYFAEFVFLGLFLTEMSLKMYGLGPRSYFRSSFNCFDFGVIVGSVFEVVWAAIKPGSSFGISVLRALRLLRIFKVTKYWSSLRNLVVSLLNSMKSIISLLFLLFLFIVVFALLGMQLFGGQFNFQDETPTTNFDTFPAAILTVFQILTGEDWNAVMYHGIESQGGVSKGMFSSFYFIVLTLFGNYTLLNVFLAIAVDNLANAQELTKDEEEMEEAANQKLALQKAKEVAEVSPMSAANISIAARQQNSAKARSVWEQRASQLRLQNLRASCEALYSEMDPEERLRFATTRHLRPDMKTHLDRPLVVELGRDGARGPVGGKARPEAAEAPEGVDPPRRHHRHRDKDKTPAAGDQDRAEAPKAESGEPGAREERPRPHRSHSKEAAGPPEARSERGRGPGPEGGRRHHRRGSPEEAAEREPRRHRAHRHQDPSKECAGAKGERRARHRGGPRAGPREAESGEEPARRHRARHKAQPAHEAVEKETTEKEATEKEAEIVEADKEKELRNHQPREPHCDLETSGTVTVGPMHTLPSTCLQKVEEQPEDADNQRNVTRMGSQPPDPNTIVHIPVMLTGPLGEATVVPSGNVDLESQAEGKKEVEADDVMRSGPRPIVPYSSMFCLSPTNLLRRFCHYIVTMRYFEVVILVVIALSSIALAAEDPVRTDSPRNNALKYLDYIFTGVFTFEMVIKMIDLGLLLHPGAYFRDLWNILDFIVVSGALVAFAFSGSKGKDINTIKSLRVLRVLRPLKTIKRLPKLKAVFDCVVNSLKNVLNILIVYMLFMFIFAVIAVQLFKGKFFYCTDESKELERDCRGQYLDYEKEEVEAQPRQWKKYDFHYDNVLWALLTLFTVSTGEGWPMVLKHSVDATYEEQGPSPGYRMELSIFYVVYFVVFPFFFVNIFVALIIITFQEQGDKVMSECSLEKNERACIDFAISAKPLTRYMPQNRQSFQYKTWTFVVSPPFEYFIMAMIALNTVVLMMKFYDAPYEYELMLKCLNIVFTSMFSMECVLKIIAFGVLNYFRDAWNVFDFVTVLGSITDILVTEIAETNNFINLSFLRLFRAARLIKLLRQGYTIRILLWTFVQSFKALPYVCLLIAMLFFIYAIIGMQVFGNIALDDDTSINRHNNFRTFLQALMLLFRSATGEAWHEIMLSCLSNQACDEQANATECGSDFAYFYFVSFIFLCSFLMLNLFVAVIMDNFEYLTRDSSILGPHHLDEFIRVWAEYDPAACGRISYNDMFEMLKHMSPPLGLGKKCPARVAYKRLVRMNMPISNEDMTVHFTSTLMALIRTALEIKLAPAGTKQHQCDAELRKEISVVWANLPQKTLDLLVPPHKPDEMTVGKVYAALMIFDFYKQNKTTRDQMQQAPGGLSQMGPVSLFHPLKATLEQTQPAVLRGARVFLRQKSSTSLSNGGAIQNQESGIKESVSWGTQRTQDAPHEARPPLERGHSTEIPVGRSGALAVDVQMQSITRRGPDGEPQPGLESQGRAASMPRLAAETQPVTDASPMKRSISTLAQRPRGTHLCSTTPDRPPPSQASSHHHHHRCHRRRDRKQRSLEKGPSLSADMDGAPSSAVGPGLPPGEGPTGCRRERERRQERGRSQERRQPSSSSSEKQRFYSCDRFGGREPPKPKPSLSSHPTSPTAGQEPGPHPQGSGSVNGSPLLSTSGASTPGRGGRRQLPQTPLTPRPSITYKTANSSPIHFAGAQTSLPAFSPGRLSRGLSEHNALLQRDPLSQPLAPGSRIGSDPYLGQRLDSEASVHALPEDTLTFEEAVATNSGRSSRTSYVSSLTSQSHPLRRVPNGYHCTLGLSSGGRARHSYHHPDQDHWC

[3] = target: Voltage-dependent T-type calcium channel subunit alpha-1H (Homo sapiens) (UniProt O95180); assay: Ability to block calcium channel T type 3.2v expressed in Xenopus oocytes at 100 uM by two-microelectrode voltage-clamp method; format: functional, cell-based; details: Oocyte
[4] = target: T1, Voltage-dependent T-type calcium channel subunit alpha-1G; assay: Ability to block calcium channel T type 3.1v expressed in HEK293 cells at 10 uM by whole cell patch clamp method; format: functional, cell-based

Question: Which Ratio (Homo sapiens) does the source give for `C[C@H](NC(=O)[C@H]1COC(=O)[C@H](Cc2ccc(F)cc2)N1)c1ccccc1` here?
Answer: 7.2

Question: What about the IC50 [1] of the same molecule?
Answer: 1480 nM

Question: And the inhibition [2]?
Answer: 11.3%

Question: What about the inhibition [3] of the same molecule?
Answer: 83.6%

Question: What about the inhibition [4] of the same molecule?
Answer: 80.8%

Question: For `C[C@H](NC(=O)[C@@H]1COC(=O)[C@H](Cc2ccc([N+](=O)[O-])cc2)N1)c1ccccc1`, which Ratio (Homo sapiens) is on record?
Answer: 20.1

Question: What about the IC50 [1] of the same molecule?
Answer: 2130 nM

Question: What about the inhibition [2] of the same molecule?
Answer: 4%

Question: What about the inhibition [3] of the same molecule?
Answer: 60.8%

Question: And the inhibition [4]?
Answer: 80.2%

Question: Which results are given for `C[C@H](NC(=O)[C@@H]1COC(=O)[C@H](Cc2ccc(Cl)cc2)N1)c1ccccc1`?
Answer: Ratio (Homo sapiens): 5.9; IC50 [1]: 1610 nM; inhibition [2]: 10.9%; inhibition [3]: 48.4%; inhibition [4]: 64%

Question: How did the Ratio (Homo sapiens) turn out when `C[C@H](NC(=O)[C@H]1COC(=O)[C@H](Cc2ccc(Cl)cc2)N1)c1ccccc1` was run?
Answer: 19.8

Question: What about the IC50 [1] of the same molecule?
Answer: 1330 nM

Question: What about the inhibition [2] of the same molecule?
Answer: 4%

Question: What about the inhibition [3] of the same molecule?
Answer: 73.3%

Question: And the inhibition [4]?
Answer: 79%

Question: For `CCC(C)[C@@H]1N[C@H](C(=O)NCc2ccccc2)COC1=O` (stereo not given in full), which Ratio (Homo sapiens) is on record?
Answer: 37.3

Question: What about the IC50 [1] of the same molecule?
Answer: 1220 nM

Question: What about the inhibition [2] of the same molecule?
Answer: 1.7%

Question: What about the inhibition [3] of the same molecule?
Answer: 70%

Question: What about the inhibition [4] of the same molecule?
Answer: 63.4%

Question: How did the Ratio (Homo sapiens) turn out when `C[C@H](NC(=O)[C@@H]1COC(=O)[C@H](Cc2ccc(O)cc2)N1)c1ccccc1` was run?
Answer: 16.4

Question: What about the IC50 [1] of the same molecule?
Answer: 1390 nM

Question: And the inhibition [2]?
Answer: 4.7%

Question: And the inhibition [3]?
Answer: 45.8%

Question: What about the inhibition [4] of the same molecule?
Answer: 77%

Question: What does the source list for `COCC(=O)O[C@]1(CCN(C)CCCc2nc3ccccc3[nH]2)CCc2cc(F)ccc2[C@@H]1C(C)C`?
Answer: inhibition [2]: 57.4%; inhibition [4]: 89.8%

Question: For `C[C@H](NC(=O)[C@@H]1COC(=O)[C@H](Cc2ccc(F)cc2)N1)c1ccccc1`, which inhibition [3] is on record?
Answer: 35.6%

Question: Which inhibition [3] does the source give for `C[C@H](NC(=O)[C@H]1COC(=O)[C@H](Cc2ccc(O)cc2)N1)c1ccccc1` here?
Answer: 27.6%

Question: For `C[C@H](NC(=O)[C@H]1COC(=O)[C@H](Cc2ccc([N+](=O)[O-])cc2)N1)c1ccccc1`, which inhibition [3] is on record?
Answer: 25.2%

Question: What does the source list for `COc1ccc(C[C@@H]2N[C@H](C(=O)NCc3ccccc3)COC2=O)cc1` (relative stereo)?
Answer: Ratio (Homo sapiens): 29.6; IC50 [1]: 2040 nM; inhibition [2]: 2.5%; inhibition [3]: 54.6%; inhibition [4]: 74%

Question: With `CSCC[C@@H]1N[C@H](C(=O)NCc2ccccc2)COC1=O` (relative stereo) as the molecule, how does the Ratio (Homo sapiens) read?
Answer: 4.9

Question: And the IC50 [1]?
Answer: 1860 nM

Question: And the inhibition [2]?
Answer: 15.4%

Question: What about the inhibition [3] of the same molecule?
Answer: 74%

Question: What about the inhibition [4] of the same molecule?
Answer: 75.1%

Question: How did the Ratio (Homo sapiens) turn out when `O=C(NCc1ccccc1)[C@@H]1COC(=O)[C@H](Cc2ccc(F)cc2)N1` (relative stereo) was run?
Answer: 10.9

Question: And the IC50 [1]?
Answer: 2750 nM

Question: And the inhibition [2]?
Answer: 7.1%

Question: What about the inhibition [3] of the same molecule?
Answer: 70.9%

Question: What about the inhibition [4] of the same molecule?
Answer: 77.6%

Question: Which Ratio (Homo sapiens) does the source give for `O=C(NC1CCCCC1)[C@@H]1COC(=O)[C@H](Cc2ccccc2)N1` (relative stereo) here?
Answer: 7.8

Question: What about the IC50 [1] of the same molecule?
Answer: 2180 nM

Question: And the inhibition [2]?
Answer: 9.4%

Question: And the inhibition [3]?
Answer: 76%

Question: What about the inhibition [4] of the same molecule?
Answer: 73.6%

Question: For `O=C(NCc1ccccc1)[C@@H]1COC(=O)[C@H](Cc2ccccc2)N1` (relative stereo), which Ratio (Homo sapiens) is on record?
Answer: 16.4

Question: And the IC50 [1]?
Answer: 1010 nM

Question: And the inhibition [2]?
Answer: 4.8%

Question: What about the inhibition [3] of the same molecule?
Answer: 87%

Question: What about the inhibition [4] of the same molecule?
Answer: 78.9%

Question: For `O=C(NCc1ccccc1)[C@@H]1COC(=O)[C@H](Cc2ccc(Cl)cc2)N1` (relative stereo), which Ratio (Homo sapiens) is on record?
Answer: 2.5

Question: And the IC50 [1]?
Answer: 450 nM

Question: And the inhibition [2]?
Answer: 33.7%

Question: And the inhibition [3]?
Answer: 73.5%

Question: And the inhibition [4]?
Answer: 83.6%

Question: With `CC(C)[C@@H]1N[C@H](C(=O)NCc2ccccc2)COC1=O` (relative stereo) as the molecule, how does the Ratio (Homo sapiens) read?
Answer: 3.1

Question: And the IC50 [1]?
Answer: 990 nM

Question: What about the inhibition [2] of the same molecule?
Answer: 25.3%

Question: What about the inhibition [3] of the same molecule?
Answer: 82%

Question: What about the inhibition [4] of the same molecule?
Answer: 78.8%

Question: With `O=C(NCc1ccccc1)[C@@H]1COC(=O)[C@H](Cc2ccc([N+](=O)[O-])cc2)N1` (relative stereo) as the molecule, how does the Ratio (Homo sapiens) read?
Answer: 11.3

Question: And the IC50 [1]?
Answer: 1130 nM

Question: And the inhibition [2]?
Answer: 7.6%

Question: What about the inhibition [3] of the same molecule?
Answer: 74.8%

Question: And the inhibition [4]?
Answer: 86.2%

Question: With `CC(C)(C)NC(=O)[C@@H]1COC(=O)[C@H](Cc2ccccc2)N1` (relative stereo) as the molecule, how does the inhibition [3] read?
Answer: 43%

Question: Which inhibition [3] does the source give for `CC(C)(C)NC(=O)[C@H]1COC(=O)[C@H](Cc2ccccc2)N1` (relative stereo) here?
Answer: 42%

Question: With `COc1ccc(C[C@@H]2N[C@@H](C(=O)NCc3ccccc3)COC2=O)cc1` (relative stereo) as the molecule, how does the inhibition [3] read?
Answer: 16.2%

Question: With `Cc1ccc(S(=O)(=O)CNC(=O)[C@@H]2COC(=O)[C@H](Cc3ccccc3)N2)cc1` (relative stereo) as the molecule, how does the inhibition [3] read?
Answer: 13%

Question: How did the inhibition [3] turn out when `Cc1ccc(S(=O)(=O)CNC(=O)[C@H]2COC(=O)[C@H](Cc3ccccc3)N2)cc1` (relative stereo) was run?
Answer: 25%

Question: With `O=C1OC[C@H](C(=O)NC2CCCCC2)N[C@H]1Cc1ccccc1` (relative stereo) as the molecule, how does the inhibition [3] read?
Answer: 30.3%

Question: For `O=C1OC[C@H](C(=O)NCc2ccccc2)N[C@H]1Cc1ccc(Cl)cc1` (relative stereo), which inhibition [3] is on record?
Answer: 19.1%

Question: How did the inhibition [3] turn out when `O=C1OC[C@H](C(=O)NCc2ccccc2)N[C@H]1Cc1ccc(F)cc1` (relative stereo) was run?
Answer: 12.3%

Question: `O=C1OC[C@H](C(=O)NCc2ccccc2)N[C@H]1Cc1ccc([N+](=O)[O-])cc1` (relative stereo) was tested. Which inhibition [3] did it give?
Answer: 6.5%

Question: With `O=C1OC[C@H](C(=O)NCc2ccccc2)N[C@H]1Cc1ccccc1` (relative stereo) as the molecule, how does the inhibition [3] read?
Answer: 5%
